Strand notation (5' to 3'): a small letter for the sugar, then the base; units joined by * are phosphorothioate-linked, units joined directly phosphodiester-linked; [ ] holds rarer units or linkages, { } end groups; capitals alone tell only the bases. e = 2'-O-(2-methoxyethyl) (MOE); l = locked nucleic acid (LNA); [5mC] = 5-methylcytosine; d = 2'-deoxy (DNA)
Tested on: human ABCB11 mRNA
Assay: ASO treatment of primary human hepatocytes (PHH), ABCB11 mRNA by RT-qPCR normalized to B2M
Type: cell-based
Settings: primary human hepatocytes, 5 μM ASO, normalized to untreated PHHs (UNT)
Summary of the method: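 ABCB11 mRNA was quantified by Taqman RT-qPCR relative to B2M and expressed as fold over untreated cells. Cells were cryopreserved primary human hepatocytes given ASO in Matrigel-supplemented medium 4 h after plating, at 1.25, 2.5, 5 or 10 μM (5 μM for screening), and harvested after 72 hrs.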

Row | Substance | ABCB11 mRNA FC (5 μM ASO vs. UNT) [fold change]
1 | CO-7062 (eT*e[5mC]*lT*eG*lG*eA*lA*eA*lA*eT*lA*eA*lT*eG*l[5mC]*e[5mC]*lT*eT*eT*e[5mC]; antisense) | 1.218
2 | CO-7063 (eT*e[5mC]*lT*eG*eG*lA*eA*eA*lA*eT*eA*lA*eT*eG*l[5mC]*e[5mC]*eT*lT*eT*e[5mC]; antisense) | 1.291
3 | CO-7064 (eT*e[5mC]*eT*eG*lG*eA*eA*eA*lA*eT*eA*eA*lT*eG*e[5mC]*e[5mC]*lT*eT*eT*e[5mC]; antisense) | 1.017
4 | CO-7065 (eT*e[5mC]*eT*lG*eG*eA*eA*lA*eA*eT*eA*lA*eT*eG*e[5mC]*l[5mC]*eT*eT*eT*e[5mC]; antisense) | 1.262
5 | CO-7066 (eT*e[5mC]*eT*eG*eG*lA*eA*eA*eA*eT*lA*eA*eT*eG*e[5mC]*l[5mC]*eT*eT*eT*e[5mC]; antisense) | 1.2
6 | CO-7067 (eT*e[5mC]*eT*eG*lG*eA*eA*eA*eA*lT*eA*eA*eT*eG*l[5mC]*e[5mC]*eT*eT*eT*e[5mC]; antisense) | 1.081
7 | CO-7068 (e[5mC]*eA*eT*eT*eT*lA*dG*dA*lG*dA*d[5mC]*lA*dA*dA*lG*eA*eA*eT*e[5mC]*eG; antisense) | 1.077
8 | CO-7069 (e[5mC]*eA*eT*lT*eT*dA*dG*lA*dG*dA*d[5mC]*lA*dA*dA*dG*lA*eA*eT*e[5mC]*eG; antisense) | 1.011
9 | CO-7070 (e[5mC]*eA*eT*eT*lT*dA*dG*dA*lG*dA*d[5mC]*dA*lA*dA*dG*eA*lA*eT*e[5mC]*eG; antisense) | 1.044
10 | CO-7088 (eA*e[5mC]*e[5mC]*e[5mC]*e[5mC]*l[5mC]*d[5mC]*dT*l[5mC]*dA*d[5mC]*l[5mC]*dT*dT*lG*eG*eT*eT*e[5mC]*e[5mC]; antisense) | 1.177
11 | CO-7089 (eA*e[5mC]*e[5mC]*l[5mC]*e[5mC]*d[5mC]*d[5mC]*lT*d[5mC]*dA*d[5mC]*l[5mC]*dT*dT*dG*lG*eT*eT*e[5mC]*e[5mC]; antisense) | 1.249
12 | CO-7090 (eA*e[5mC]*e[5mC]*e[5mC]*l[5mC]*d[5mC]*d[5mC]*dT*l[5mC]*dA*d[5mC]*d[5mC]*lT*dT*dG*eG*lT*eT*e[5mC]*e[5mC]; antisense) | 1.203
13 | CO-7091 (eA*e[5mC]*e[5mC]*l[5mC]*e[5mC]*l[5mC]*e[5mC]*lT*e[5mC]*lA*e[5mC]*l[5mC]*eT*lT*eG*lG*eT*lT*e[5mC]*e[5mC]; antisense) | 1.164
14 | CO-7093 (eA*e[5mC]*l[5mC]*e[5mC]*e[5mC]*l[5mC]*e[5mC]*eT*l[5mC]*eA*e[5mC]*l[5mC]*eT*eT*lG*eG*eT*lT*e[5mC]*e[5mC]; antisense) | 1.269
15 | CO-7094 (eA*e[5mC]*e[5mC]*e[5mC]*l[5mC]*e[5mC]*e[5mC]*eT*l[5mC]*eA*e[5mC]e[5mC]*lT*eT*eG*eG*lT*eT*e[5mC]*e[5mC]) | 0.993
16 | CO-7095 (eA*e[5mC]*e[5mC]*l[5mC]*e[5mC]*e[5mC]*e[5mC]*lT*e[5mC]*eA*e[5mC]*l[5mC]*eT*eT*eG*lG*eT*eT*e[5mC]*e[5mC]; antisense) | 0.925
17 | CO-7096 (eA*e[5mC]*e[5mC]*e[5mC]*e[5mC]*l[5mC]*e[5mC]*eT*e[5mC]*eA*l[5mC]*e[5mC]*eT*eT*eG*lG*eT*eT*e[5mC]*e[5mC]; antisense) | 1.157
18 | CO-7097 (eA*e[5mC]*e[5mC]*e[5mC]*l[5mC]*e[5mC]*e[5mC]*eT*e[5mC]*lA*e[5mC]*e[5mC]*eT*eT*lG*eG*eT*eT*e[5mC]*e[5mC]; antisense) | 1.028
19 | CO-7098 (eA*eT*e[5mC]eT*eG*eG*dA*dA*dA*dA*dT*dA*dA*dT*dG*d[5mC]*e[5mC]*eT*eT*eT*e[5mC]*eT) | 1.04
20 | CO-7099 (eA*eT*e[5mC]*eT*eG*eG*eA*eA*eA*eA*eT*eA*eA*eT*eG*e[5mC]*e[5mC]*eT*eT*eT*e[5mC]*eT; antisense) | 0.882
21 | CO-7100 (eA*eT*e[5mC]*eT*eG*dG*dA*dA*eA*dA*dT*dA*dA*eT*dG*d[5mC]*d[5mC]*eT*eT*eT*e[5mC]*eT; antisense) | 1.406

Row | Substance | ABCB11 mRNA FC (5 μM ASO vs. UNT) [fold change]
22 | CO-7101 (eA*eT*e[5mC]*eT*eG*lG*dA*dA*lA*dA*dT*dA*dA*lT*dG*d[5mC]*l[5mC]*eT*eT*eT*e[5mC]*eT; antisense) | 1.165
23 | CO-7102 (eT*eA*eT*e[5mC]*eT*eG*eG*dA*dA*dA*dA*dT*dA*dA*dT*dG*d[5mC]*e[5mC]*eT*eT*eT*e[5mC]*eT*eA; antisense) | 1.068
24 | CO-7103 (eT*eA*eT*e[5mC]*eT*eG*eG*eA*eA*eA*eA*eT*eA*eA*eT*eG*e[5mC]*e[5mC]*eT*eT*eT*e[5mC]*eT*eA; antisense) | 1.006
25 | CO-7104 (eT*eA*eT*e[5mC]*eT*dG*dG*eA*dA*dA*eA*dT*dA*eA*dT*dG*e[5mC]*d[5mC]*dT*eT*eT*e[5mC]*eT*eA; antisense) | 0.918
26 | CO-7105 (eT*eA*eT*e[5mC]*eT*dG*dG*lA*dA*dA*lA*dT*dA*lA*dT*dG*l[5mC]*d[5mC]*dT*eT*eT*e[5mC]*eT*eA; antisense) | 1.002
27 | CO-7106 (eA*e[5mC]*eA*eT*eT*eT*dA*dG*dA*dG*dA*d[5mC]*dA*dA*dA*dG*eA*eA*eT*e[5mC]*eG*e[5mC]; antisense) | 1.246
28 | CO-7107 (eA*e[5mC]*eA*eT*eT*eT*eA*eG*eA*eG*eA*e[5mC]*eA*eA*eA*eG*eA*eA*eT*e[5mC]*eG*e[5mC]; antisense) | 1.148
29 | CO-7108 (eA*e[5mC]*eA*eT*eT*dT*dA*dG*eA*dG*dA*d[5mC]*dA*eA*dA*dG*dA*eA*eT*e[5mC]*eG*e[5mC]; antisense) | 1.101
30 | CO-7109 (eA*e[5mC]*eA*eT*eT*lT*dA*dG*lA*dG*dA*d[5mC]*dA*lA*dA*dG*lA*eA*eT*e[5mC]*eG*e[5mC]; antisense) | 1.043
31 | CO-7110 (eT*eA*e[5mC]*eA*eT*eT*eT*dA*dG*dA*dG*dA*d[5mC]*dA*dA*dA*dG*eA*eA*eT*e[5mC]*eG*e[5mC]*eT; antisense) | 1.035
32 | CO-7111 (TACATTTAGAGACAAAGAATCGCT; fully MOE, PS/PO backbone, 5-methylcytosine; listed as RNA; modified_base 1..24: mod_base = OTHER; note = Phosphorothioate linkage; note = 2'-O-(2-methoxyethyl) ribonucleotide; modified_base 3: mod_base = OTHER; note = 5-methyl cytidine; modified_base 13: mod_base) | 1.027
33 | CO-7112 (eT*eA*e[5mC]*eA*eT*dT*dT*eA*dG*dA*eG*dA*d[5mC]*eA*dA*dA*eG*dA*dA*eT*e[5mC]*eG*e[5mC]*eT; antisense) | 0.98
34 | CO-7113 (TACATTTAGAGACAAAGAATCGCT; MOE/LNA gapmer, PS/PO backbone, 5-methylcytosine; listed as DNA; modified_base 1..24: mod_base = OTHER; note = Phosphorothioate linkage; modified_base 1..5: mod_base = OTHER; note = 2'-O-(2-methoxyethyl) ribonucleotide; misc_feature 1..5: note = RNA; misc_feature 6..7: note = DNA; misc_feature 8: note = RNA) | 1.179
35 | CO-7114 (eG*eT*eG*eT*eT*eT*dT*dG*d[5mC]*dT*dT*dG*dG*dT*d[5mC]*dA*eA*eG*eA*eG*eG*eA; antisense) | 1.47
36 | CO-7147 (antisense e[5mC]*eT*eT*eA*lG*eG*eA*eG*eG*lA*eT*eT*eA*eT*lT*eT*eA*eA*e[5mC]*e[5mC]) | 1.272
37 | CO-7148: derivative ASO with additional chemical modifications based on parent ASO CO-4517 (antisense e[5mC]*e[5mC]*eT*eT*eA*eG*dG*dA*dG*dG*dA*dT*dT*dA*dT*dT*eT*eA*eA*e[5mC]*e[5mC]*eT) | 1.527
38 | CO-7149: derivative ASO with additional chemical modifications based on parent ASO CO-4517 (antisense e[5mC]*e[5mC]*eT*eT*eA*eG*eG*eA*eG*eG*eA*eT*eT*eA*eT*eT*eT*eA*eA*e[5mC]*e[5mC]*eT) | 1.719
39 | CO-7150: derivative ASO with additional chemical modifications based on parent ASO CO-4517 (antisense e[5mC]*e[5mC]*eT*eT*eA*dG*dG*dA*eG*dG*dA*dT*dT*eA*dT*dT*dT*eA*eA*e[5mC]*e[5mC]*eT) | 1.505
40 | CO-7151: derivative ASO with additional chemical modifications based on parent ASO CO-4517 (antisense e[5mC]*e[5mC]*eT*eT*eA*lG*dG*dA*lG*dG*dA*dT*dT*lA*dT*dT*lT*eA*eA*e[5mC]*e[5mC]*eT) | 1.498
41 | CO-7152 (antisense eA*e[5mC]*e[5mC]*eT*eT*eA*eG*dG*dA*dG*dG*dA*dT*dT*dA*dT*dT*eT*eA*eA*e[5mC]*e[5mC]*eT*e[5mC]) | 1.28
42 | CO-7153 (antisense eA*e[5mC]*e[5mC]*eT*eT*eA*eG*eG*eA*eG*eG*eA*eT*eT*eA*eT*eT*eT*eA*eA*e[5mC]*e[5mC]*eT*e[5mC]) | 1.409

Source: patent US20250320496A1, “MODULATION OF ABCB11 GENE TRANSCRIPTION USING ANTISENSE OLIGONUCLEOTIDES TARGETING REGULATORY RNAS” (CAMP4 Therapeutics Corporation, priority 2022, published 2025)
